Measured values as given in patent US20210254056A1, “IDENTIFICATION AND TARGETED MODULATION OF GENE SIGNALING NETWORKS” (CAMP4 THERAPEUTICS CORPORATION, priority 2017, published 2021).

How the values were obtained:
hepatocytes [1] = assay: qRT-PCR validation of the Example 12 RNA-seq results;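 note: Compound-treated versus DMSO control, target Ct normalized to GAPDH or β-actin reference (ΔΔCt method), positive values mean higher expression than DMSO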
hepatocytes [2] = system: hepatocytes
hepatocytes [3] = system: hepatocytes; remark: listed apart in the source
hepatocytes [4] = assay: RNA-seq of hepatocytes stimulated with the compounds of Table 68; settings: hepatocytes, RNA-seq
[5] = system: primary human hepatocytes; assay: RNA-seq of primary human hepatocytes treated with 39 small molecules (pilot and validation); settings: pilot RNA-seq study of Example 2; significance: FPKM≥0.5, log 2(fold change)≥1, q-value ≤0.05

Compound: CO[C@H]1/C=C/O[C@@]2(C)Oc3c(C)c(O)c4c(O)c(c(/C=N/N5CCN(C)CC5)c(O)c4c3C2=O)NC(=O)/C(C)=C\C=C\[C@H](C)[C@H](O)[C@@H](C)[C@@H](O)[C@@H](C)[C@H](OC(C)=O)[C@@H]1C [MT-901, Rifampicin]
- qRT-PCR log2fc, AGTR1 (hepatocytes [1]; log 2 fold change in AGTR1 gene expression): −0.37
- qRT-PCR log2fc, ALAS1 (hepatocytes [1]; log 2 fold change in ALAS1 gene expression): 0.3
- qRT-PCR log2fc, CA12 (hepatocytes [1]; log 2 fold change in CA12 gene expression): 0.53
- qRT-PCR log2fc, ENO3 (hepatocytes [1]; log 2 fold change in ENO3 gene expression): −0.06
- qRT-PCR log2fc, POR (hepatocytes [1]; log 2 fold change in POR gene expression): 0.16
- qRT-PCR log2fc, SLC6A6 (hepatocytes [1]; log 2 fold change in SLC6A6 gene expression): −0.14
- qRT-PCR log2fc, SLC6A20 (hepatocytes [1]; log 2 fold change in SLC6A20 gene expression): −0.17
- qRT-PCR log2fc, SLC51B (hepatocytes [1]; log 2 fold change in SLC51B gene expression): 1.72
- qRT-PCR log2fc, VLDLR (hepatocytes [1]; log 2 fold change in VLDLR gene expression): 0.63
- qRT-PCR log2fc, CYP2C19 (hepatocytes [2]): −0.37
- DESeq log2fc, CYP7A1 (hepatocytes [3]): −1.44
- Cuffdiff log2fc, AGTR1 (hepatocytes [4]; log 2 fold change in AGTR1 gene expression, Cuffdiff): 1.1
- DESeq log2fc, AGTR1 (hepatocytes [4]; log 2 fold change in AGTR1 gene expression, DESeq): 1.18
- Cuffdiff log2fc, ALAS1 (hepatocytes [4]; log 2 fold change in ALAS1 gene expression, Cuffdiff): 1.45
- DESeq log2fc, ALAS1 (hepatocytes [4]; log 2 fold change in ALAS1 gene expression, DESeq): 1.47
- Cuffdiff log2fc, CA12 (hepatocytes [4]; log 2 fold change in CA12 gene expression, Cuffdiff): 1.53
- DESeq log2fc, CA12 (hepatocytes [4]; log 2 fold change in CA12 gene expression, DESeq): 1.56
- DESeq log2fc, CYP2C19 (hepatocytes [4]; log 2 fold change in CYP2C19 gene expression, DESeq): 2.3
- Cuffdiff log2fc, ENO3 (hepatocytes [4]; log 2 fold change in ENO3 gene expression, Cuffdiff): −1.13
- DESeq log2fc, ENO3 (hepatocytes [4]; log 2 fold change in ENO3 gene expression, DESeq): −0.97
- Cuffdiff log2fc, POR (hepatocytes [4]; log 2 fold change in POR gene expression, Cuffdiff): 1.13
- DESeq log2fc, POR (hepatocytes [4]; log 2 fold change in POR gene expression, DESeq): 1.17
- Cuffdiff log2fc, SLC6A6 (hepatocytes [4]; log 2 fold change in SLC6A6 gene expression, Cuffdiff): 1.28
- DESeq log2fc, SLC6A6 (hepatocytes [4]; log 2 fold change in SLC6A6 gene expression, DESeq): 1.39
- Cuffdiff log2fc, SLC6A20 (hepatocytes [4]; log 2 fold change in SLC6A20 gene expression, Cuffdiff): 1.03
- DESeq log2fc, SLC6A20 (hepatocytes [4]; log 2 fold change in SLC6A20 gene expression, DESeq): 1.06
- Cuffdiff log2fc, SLC51B (hepatocytes [4]; log 2 fold change in SLC51B gene expression, Cuffdiff): 1.02
- DESeq log2fc, SLC51B (hepatocytes [4]; log 2 fold change in SLC51B gene expression, DESeq): 1.19
- Cuffdiff log2fc, VLDLR (hepatocytes [4]; log 2 fold change in VLDLR gene expression, Cuffdiff): 1.69
- DESeq log2fc, VLDLR (hepatocytes [4]; log 2 fold change in VLDLR gene expression, DESeq): 1.71
- Number (#) of genes having significantly changed expression [5]: 90
